Experimental findings from ChEMBL document CHEMBL1133240, “Michael adducts of ascorbic acid as inhibitors of protein phosphatase 2A and inducers of apoptosis” (Bioorg Med Chem Lett, 2000) are described below.

Data set [1] relates to HIT. In words: Compound was evaluated for inhibitory effect against casein dephosphorylation (casein is a substrate of PP-2A) by a HIT cell extract at 1000 uM; Some inhibition. In kind it is functional, cell-based. Conditions: Homo sapiens.
Data set [2] has as its system HIT. In words: Inhibitory concentration against casein dephosphorylation (casein is a substrate of PP-2A) by a HIT cell extract. In kind it is functional, cell-free. Conditions: Homo sapiens.
Data set [3] in a line: Compound was evaluated for inhibitory effect against casein dephosphorylation (casein is a substrate of PP-2A) by a HIT cell extract relative to cantharidic acid (100 uM). It counts as functional, cell-based, Homo sapiens.
A short description of data set [4]: Lethal dose was evaluated in HIT 100R cells. In kind it is toxicity, cell-based. Conditions: human, read-out: LC50 (the source's name).
A short description of data set [5]: Lethal dose was evaluated in parental HIT cells. In kind it is toxicity, cell-based. Conditions: read-out: LC50 (the source's name).
Data set [6] in a line: Compound was evaluated for inhibitory effect against casein dephosphorylation (casein is a substrate of PP-2A) by a HIT cell extract with Okadaic acid (225 nM) or Cantharidic acid (100 uM). In kind it is functional, cell-based, Homo sapiens.
Data set [7] in a line: Compound was evaluated for inhibitory effect against casein dephosphorylation (casein is a substrate of PP-2A) by a HIT cell extract at 100 uM. It counts as functional. Conditions: Homo sapiens.

The structures appear in SMILES notation.

A word on the inhibition: it is how much of the control response was suppressed. Low values mean a weak effect, high ones a strong effect. Regarding `CCCCCCCCCCCCCCCC(=O)OC[C@@H](O)[C@H]1OC(=O)[C@]2(CCC(OC(C)C)O2)C1=O` (some centres undefined), the inhibition result with HIT [1] is reported as “Some inhibition”.
As for `C=C1[C@@H](O)[C@@H]2O[C@]3(CC[C@H](/C=C/[C@@H](C)[C@@H]4CC(C)=C[C@@]5(O[C@H](C[C@@](C)(O)C(=O)O)CC[C@H]5O)O4)O3)CC[C@H]2O[C@@H]1[C@@H](O)C[C@H](C)[C@H]1O[C@@]2(CCCCO2)CC[C@H]1C`, the Concentration in the data set on HIT [2] turned out to be 225 nM.
What is called IC50 is the point on the concentration scale where inhibition reaches its midpoint. High values mean lower potency, low ones higher potency. In the case of `O=C1O[C@@H]2[C@@H](O)CO[C@]2(O)[C@@]1(O)C(C[N+](=O)[O-])c1ccc(Cl)cc1` (some centres undefined), it took 70 µM to reach half-maximal inhibition in data set [3] (IC50). Moreover, the CC50 was 7.9 µM in data set [4] and 5.6 µM in data set [5].
Regarding `CCCCCCCCCCCCCCCC(=O)OC[C@@H](O)[C@H]1OC(=O)[C@]2(O)CCC(O)O[C@]12OC` (some centres undefined), the half-inhibitory concentration (IC50) in data set [6] came to 175 µM. The figures for the CC50 in data set [4] and in data set [5] were 126 µM and 100 µM, respectively. This molecule also came in with an inhibition at 100 µM in data set [7] of 40%.
